According to patent US20120115955A1, “Methods for tumor treatment and adipogenesis differentiation” (Centro de Investigacion Principe Felipe, priority 2010, published 2012):
Entries after “also recorded” stand apart in the source; their conditions may differ.

Tests used:
MALME-3M cells = assay: Nile-Red neutral lipid / LD quantification by flow cytometry (FL2); type: cell-based, human; conditions: 12 hours, vs DMSO control; for LD accumulation (Nile-RED): 100 μg/ml each fatty acid, except 10 μg/ml docosahexaenoic and arachidonic acid; for fold induction at 100 µg/mL: Homo sapiens, 100 μg/ml, read-out: generation of LDs, fold induction (Nile-RED FL2)
Procedure: FIG. 6. […] MALME-3M cells were cultured in the presence of 10 μg/ml of docosahexaenoic acid, 100 μg/ml of nervonic acid, 100 μg/ml of erucic acid, 10 μg/ml of arachidonic acid, 100 μg/ml of linolenic acid, 100 μg/ml of linoleic acid, 100 μg/ml of oleic acid, 100 μg/ml of palmitoleic acid, 100 μg/ml of elaidic acid, or 100 μg/ml petroselinic acid for 12 hours. Fatty acids were dissolved in DMSO; therefore the cells cultured with RPMI+10% FBS and treated with DMSO only were considered negative controls. The Nile-Red analysis was performed as described in the Material and Methods section. Quantification in the FL2 parameter was assessed by the FlowJo software. Fold induction was estimated by calculating the ratio between treated conditions and the untreated condition (control). The results are representative of three independent experiments.
(§1) Cells (10^5) were washed twice in PBS and then incubated with 25 μg/ml of Nile-Red (Invitrogen) in PBS (15 min, 4° C.). After incubation, cells were filtered through a 30 μm sieve (CellTrics, Partec). Fluorescent emission (525 nm) was registered in the FL2 channel by a Beckman Coulter Flow Cytometer (Cytomics™ FC 500). Data files were analyzed using the FlowJo flow cytometer analysis software.

[1] = tested on: HCCLs (MALME-3M, MCF-7, SK-OV-3, HUH-7); assay: Flow cytometry FSC and SSC parameters of HCCLs; type: cell-based, human; conditions: mini-screen of unsaturated fatty acids associated with albumin; HUH-7, SK-OV-3, MCF-7, MALME-3M
HUH-7 cells = type: cell-based
Procedure: as §1

SMILES | LD accumulation (Nile-RED) (MALME-3M cells) | modifications in the forward and side scatter parameters [1] | fold induction at 100 µg/mL (MALME-3M cells) | LD accumulation by single fatty acid (HUH-7 cells)
CCCCCCCC/C=C/CCCCCCCC(=O)O [elaidic acid, reference compound] | LD accumulation was induced | – | – | –
CCCCCCCC/C=C\CCCCCCCCCCCC(=O)O [erucic acid, reference compound] | LD accumulation was induced | – | – | –
CCCCC/C=C\C/C=C\CCCCCCCC(=O)O [linoleic acid, cis, cis-9,12-octadecadienoic acid] | triggers LD accumulation; also recorded: LD accumulation was induced | remarkable modifications in the forward and side scatter parameters | ≥ 6 | triggers LD accumulation
CCCCCCCC/C=C\CCCCCCCC(=O)O [oleic acid, (9Z)-Octadec-9-enoic acid] | LD accumulation was induced | remarkable modifications in the forward and side scatter parameters | ≥ 6 | –
CCCCCCC=CCCCCCCCC(=O)O [palmitoleic acid, hexadec-9-enoic acid] | LD accumulation was induced | remarkable modifications in the forward and side scatter parameters | ≥ 6 | –
CCCCCCCCCCC/C=C\CCCCC(=O)O [petroselinic acid, cis-6-octadecenoic] | LD accumulation was induced | – | ≥ 6 | –
